Test results from patent publication US20150050734A1, “Carbon Nanotubes And Methods Of Use” (DUKE UNIVERSITY, priority 2012, published 2015).
Entries after “also recorded” stand apart in the source; their conditions may differ.

Experiments:
primary cortical neurons = assay: Clomeleon-based ratiometric chloride imaging; assay type: cell-based, rat; details: for effect on neuronal [Cl−]i: KN93 1 μM
Protocol: The preparation of primary cortical neurons was adapted from a previous protocol. […] Briefly, cortices were microdissected from embryonic rats (E18) or mice (E16.5).
The tissue was dissociated using papain, followed by mechanical dissociation. Cytosine arabinoside (2.5 μM) was added to cultures to inhibit the proliferation of non-neuronal cells. Cell suspension was plated at a density of 10^6 cells mL^−1 onto tissue-culture dishes. 12 mm-diameter matrix-covered glass coverslips were contained in tissue culture dishes, typically n=3.

KCC2 = KCC2 immunocytochemistry / densitometry in cultured neurons; assay type: cell-based, rat; details: KN93 1 μM
Protocol: Confocal fluorescence imaging was conducted after immunolabeling for β3-tubulin (mouse monoclonal antibody; 1:200, Iowa hybridoma bank, Iowa City, United States), and KCC2 (rabbit polyclonal antibody; Abcam; 1:200). Id.. Fluorescently labeled sections were visualized in a Zeiss LSM710 (Carl Zeiss AG, Oberkochen, Germany) confocal imaging suite with lasers tuned to the […] spectra of the secondary fluorescent antibodies (coupled to Alexa-488 and Alexa-595 dyes), as described previously. Li, J. et al. (2011) Environ Health Perspect 119:784-793.
Morphometry for confocal and light-microscopy acquired images was conducted as previously described. Yeo, M. et al. (2009) J. Neurosci 29:14652-14662.

Row | Structure (SMILES) | effect on acceleration of the chloride shift and upregulation of KCC2 (primary cortical neurons; KN62 1 μM, fwCNT-cultured primary neurons) | effect on neuronal [Cl−]i (primary cortical neurons; Au-cultured neurons) | effect on neuronal [Cl−]i (primary cortical neurons; fwCNT-cultured neurons) | effect on KCC2 expression (KCC2; Au-cultured neurons) | effect on KCC2 upregulation (KCC2; fwCNT-cultured neurons)
1 | CN([C@@H](Cc1ccc(OS(=O)(=O)c2cccc3cnccc23)cc1)C(=O)N1CCN(c2ccccc2)CC1)S(=O)(=O)c1cccc2cnccc12 [KN62] | Dependence of acceleration of the chloride shift and upregulation of KCC2 | – | – | – | –
2 | COc1ccc(S(=O)(=O)N(CCO)c2ccccc2CN(C)C/C=C/c2ccc(Cl)cc2)cc1 [KN93] | – | also not on Au-cultured neurons | specific and powerful effect | modest reduction; also recorded: relative lack effect | strict dependence
